In article PMC8228600, “Design, Synthesis, In Vitro and In Vivo Evaluation of Heterobivalent SiFAlin-Modified Peptidic Radioligands Targeting Both Integrin αvβ3 and the MC1 Receptor—Suitable for the Specific Visualization of Melanomas?” (Pharmaceuticals, 2021):
Read-outs that look alike come from different tables or passages of the source.

How the values were obtained:
[1] = logD(7.4) determination (n-octanol / phosphate buffer distribution); assay type: physicochemical; settings: n-octanol / 0.05 M phosphate buffer pH 7.4; mean ± SD
Experimental: Since high lipophilicity of peptidic radiotracers can lead to a high plasma protein binding, resulting in unspecific organ and high liver uptakes, thus negatively impact tumor visualization, the lipophilicity of the HBPLs was determined to get an approximate estimation of the in vivo biodistribution behavior of the radioligands. Therefore, the logD(7.4) values of the SiFAlin-modified HBPLs [^18F]1–[^18F]6 were determined via their distribution coefficient between n-octanol and phosphate buffer at pH 7.4.
The radiotracer solutions were first diluted with 0.9% NaCl solution to give a final EtOH concentration of <10%. A total of 5 MBq of the respective radiotracer in solution was added to 1.6 mL of a mixture of n-octanol and 0.05 M phosphate buffer (pH = 7.4) (v/v, 1/1), and the solution was vigorously shaken for 5 min. Subsequently, the phases were separated by centrifugation at 13.4 rpm for 2 min, and 100 μL of organic and aqueous phases were collected. The activity of each sample was measured using a gamma counter. The lipophilicity of each compound was determined in triplicate in three independent experiments.

[2] = Ex vivo biodistribution in tumor-bearing nude mice (non-tumor tissues); settings: male, Balb/cAnNRj-Foxn1nu/nu (nude), mouse, iv, total radioactivity, ex vivo after PET/CT scan, i.v., n = 3
Experimental: (§1) For the evaluation of the in vivo pharmacokinetics, the two most promising HBPLs—[^18F]2 with the highest affinity to both target receptors and [^18F]4 with the highest hydrophilicity and still reasonable binding affinities—were selected. For PET/CT imaging, 6-week-old male nude mice (Balb/cAnNRj-Foxn1^nu/nu) were subcutaneously injected with 5 × 10^5 B16F10 cells into the right flank and 2.0–2.5 × 10^6 U87MG cells into the left flank to generate the respective receptor-positive tumors. When the tumors reached a sufficient size for imaging, each mouse was administered 4.15 ± 2.28 MBq of [^18F]2 or 3.95 ± 2.06 MBq of [^18F]4 via the lateral tail vein under isoflurane anesthesia. To determine the receptor specificity of both peptide parts of the labeled HBPLs and their relative contribution to overall tumor uptake, blocking experiments were also performed. […] After i.v. injection of the tracers, a dynamic PET scan, followed by a CT scan, was performed. The resulting PET/CT images and time–activity curves (TACs) are depicted in Figure 6, Figure 7 and Figure 8. After completion of the diagnostic scans, the mice were sacrificed, their organs (blood, spleen, liver, kidney, pancreas, lung, heart, brain, bone, muscle, tail, tumors, stomach, colon and small intestine) were collected and measured in a γ-counter for ex vivo biodistribution (see Supplementary Materials Table S1 for detailed results).
(§2) Each male nude mouse (six weeks old) was injected subcutaneously with 5 × 10^5 B16F10 cells into the right flank and 2.0–2.5 × 10^6 U87MG cells into the left flank. The health status and tumor growth of the mice were monitored regularly until the animals could be examined after 15–21 days, depending on the tumor size. For the in vivo experiments, the ^18F-radiolabeled compound was diluted in 0.9% saline to give a final EtOH concentration of <10%. Each mouse was injected with 4.15 ± 2.28 MBq of [^18F]2 or 3.95 ± 2.06 MBq of [^18F]4 via the lateral tail vein under isoflurane anesthesia. […] Each ^18F-labeled compound was studied with or without blocking in at least three mice. Mice were measured under isoflurane anesthesia in a small PET/SPECT/CT animal imaging system. First, a dynamic PET scan was performed over 90 min and the scan was framed in 29 timeframes (10 × 1 min, 10 × 2 min, 6 × 5 min, 3 × 10 min). Images were reconstructed using 12 iterations, a maximum likelihood expectation maximization (MLEM) algorithm including corrections for scattered radiation and decay and a voxel size of 0.5 mm. All PET scans were immediately followed by CT acquisition at a voltage of 45 kV and a current of 400 μA. The images were reconstructed using the filtered back projection (FBP) algorithm with a voxel size of 250 μm. The analysis of the data, including the generation of TACs of the kidneys, liver and tumors and the MIPs, was performed via PMOD (v3.8). For ex vivo biodistribution, the mice were sacrificed directly after the PET/CT scan. Organs (blood, spleen, liver, kidneys, pancreas, lungs, heart, brain, bone, muscle, tail, tumors, stomach, colon and small intestine) were collected, weighed and their radioactivity measured in a γ-counter. The percentage injected dose per gram (% ID/g) of each tissue was calculated from the determined values, organ weights, reference values and injected activity.

B16F10 and U87MG tumors = experiment: In vivo dynamic PET/CT imaging and time–activity curves; parameters: species or system nude mice (Balb/cAnNRj-Foxn1nu/nu)
Experimental: as §1
Briefly, 4–5-week-old male nude mice (Balb/cAnNRj-Foxn1^nu/nu) were obtained from Janvier. A dynamic PET scan over 90 min and a subsequent CT image over 20 min were acquired using a triple-modality Bruker Albira II small-animal PET/CT/SPECT scanner. Three animals were studied per group.
as §2

SMILES: CCCC[C@H](NC(=O)CNC(=O)CNC(=O)CCOCCOCCOCCOCCOCCOCCOCCOCCOCCC(=O)NCCCN(CCCNC(=O)CCOCCOCCOCCOCCOCCOCCOCCOCCOCCC(=O)NCCCC[C@@H]1NC(=O)[C@@H](Cc2ccccc2)NC(=O)[C@H](CC(=O)O)NC(=O)CNC(=O)[C@H](CCCNC(=N)N)NC1=O)CC(=O)N[C@@H](CCCCNC(=O)CCC[N+](C)(C)Cc1ccc([Si](F)(C(C)(C)C)C(C)(C)C)cc1)C(N)=O)C(=O)N[C@H]1CC(=O)NCCCC[C@@H](C(N)=O)NC(=O)[C@H](Cc2c[nH]c3ccccc23)NC(=O)[C@H](CCCNC(=N)N)NC(=O)[C@@H](Cc2ccccc2)NC(=O)[C@H](Cc2c[nH]cn2)NC1=O [[^18F]4]
- logD [1]: -1.39 ± 0.03
- tissue uptake at 1.5 h ([2]; blood, NDP blocking (20 μg coinjected), read-out: ID/g, blood): 2.07 ± 0.94 %ID/g
- tissue uptake at 1.5 h ([2]; blood, c(RGDyK) blocking (200 μg coinjected), read-out: ID/g, blood): 0.83 ± 0.06 %ID/g
- tissue uptake at 1.5 h ([2]; blood, double blocking (NDP + c(RGDyK)), read-out: ID/g, blood): 1 ± 0.15 %ID/g
- tissue uptake at 1.5 h ([2]; blood, without blocking, read-out: ID/g, blood): 0.59 ± 0.08 %ID/g
- tissue uptake at 1.5 h ([2]; bone, NDP blocking (20 μg coinjected), read-out: ID/g, bone): 4.61 ± 0.71 %ID/g
- tissue uptake at 1.5 h ([2]; bone, c(RGDyK) blocking (200 μg coinjected), read-out: ID/g, bone): 4.99 ± 0.71 %ID/g
- tissue uptake at 1.5 h ([2]; bone, double blocking (NDP + c(RGDyK)), read-out: ID/g, bone): 2.99 ± 0.78 %ID/g
- tissue uptake at 1.5 h ([2]; bone, without blocking, read-out: ID/g, bone): 18.1 ± 6.02 %ID/g
- tissue uptake at 1.5 h ([2]; brain, NDP blocking (20 μg coinjected), read-out: ID/g, brain): 0.19 ± 0.07 %ID/g
- tissue uptake at 1.5 h ([2]; brain, c(RGDyK) blocking (200 μg coinjected), read-out: ID/g, brain): 0.07 ± 0.02 %ID/g
- tissue uptake at 1.5 h ([2]; brain, double blocking (NDP + c(RGDyK)), read-out: ID/g, brain): 0.07 ± 0.01 %ID/g
- tissue uptake at 1.5 h ([2]; brain, without blocking, read-out: ID/g, brain): 0.1 ± 0.03 %ID/g
- tissue uptake ([2]; colon, NDP blocking (20 μg coinjected), read-out: ID/g, colon): 0.96 ± 0.13 %ID/g
- tissue uptake ([2]; colon, c(RGDyK) blocking (200 μg coinjected), read-out: ID/g, colon): 0.8 ± 0.32 %ID/g
- tissue uptake ([2]; colon, double blocking (NDP + c(RGDyK)), read-out: ID/g, colon): 0.42 ± 0.05 %ID/g
- tissue uptake ([2]; colon, without blocking, read-out: ID/g, colon): 0.77 ± 0.26 %ID/g
- tissue uptake at 1.5 h ([2]; heart, NDP blocking (20 μg coinjected), read-out: ID/g, heart): 0.73 ± 0.06 %ID/g
- tissue uptake at 1.5 h ([2]; heart, c(RGDyK) blocking (200 μg coinjected), read-out: ID/g, heart): 1.51 ± 0.57 %ID/g
- tissue uptake at 1.5 h ([2]; heart, double blocking (NDP + c(RGDyK)), read-out: ID/g, heart): 0.52 ± 0.06 %ID/g
- tissue uptake at 1.5 h ([2]; heart, without blocking, read-out: ID/g, heart): 0.56 ± 0.19 %ID/g
- tissue uptake at 1.5 h ([2]; kidneys, NDP blocking (20 μg coinjected), read-out: ID/g, kidneys): 23.1 ± 4.97 %ID/g
- tissue uptake at 1.5 h ([2]; kidneys, c(RGDyK) blocking (200 μg coinjected), read-out: ID/g, kidneys): 21.4 ± 4.04 %ID/g
- tissue uptake at 1.5 h ([2]; kidneys, double blocking (NDP + c(RGDyK)), read-out: ID/g, kidneys): 26.5 ± 6.59 %ID/g
- tissue uptake at 1.5 h ([2]; kidneys, without blocking, read-out: ID/g, kidneys): 7.72 ± 2.57 %ID/g
- tissue uptake at 1.5 h ([2]; liver, NDP blocking (20 μg coinjected), read-out: ID/g, liver): 5.16 ± 0.56 %ID/g
- tissue uptake at 1.5 h ([2]; liver, c(RGDyK) blocking (200 μg coinjected), read-out: ID/g, liver): 10.4 ± 3.65 %ID/g
- tissue uptake at 1.5 h ([2]; liver, double blocking (NDP + c(RGDyK)), read-out: ID/g, liver): 4.04 ± 1.06 %ID/g
- tissue uptake ([2]; liver, without blocking, read-out: ID/g, liver): 8.3 ± 2.77 %ID/g
- tissue uptake at 1.5 h ([2]; lung, NDP blocking (20 μg coinjected), read-out: ID/g, lung): 1.25 ± 0.06 %ID/g
- tissue uptake at 1.5 h ([2]; lung, c(RGDyK) blocking (200 μg coinjected), read-out: ID/g, lung): 2.75 ± 1.04 %ID/g
- tissue uptake at 1.5 h ([2]; lung, double blocking (NDP + c(RGDyK)), read-out: ID/g, lung): 0.88 ± 0.14 %ID/g
- tissue uptake at 1.5 h ([2]; lung, without blocking, read-out: ID/g, lung): 3.45 ± 1.15 %ID/g
- tissue uptake at 1.5 h ([2]; muscle, NDP blocking (20 μg coinjected), read-out: ID/g, muscle): 0.63 ± 0.07 %ID/g
- tissue uptake at 1.5 h ([2]; muscle, c(RGDyK) blocking (200 μg coinjected), read-out: ID/g, muscle): 1.62 ± 0.42 %ID/g
- tissue uptake at 1.5 h ([2]; muscle, double blocking (NDP + c(RGDyK)), read-out: ID/g, muscle): 2.58 ± 1.28 %ID/g
- tissue uptake at 1.5 h ([2]; muscle, without blocking, read-out: ID/g, muscle): 0.07 ± 0.02 %ID/g
- tissue uptake at 1.5 h ([2]; pancreas, NDP blocking (20 μg coinjected), read-out: ID/g, pancreas): 0.52 ± 0.12 %ID/g
- tissue uptake at 1.5 h ([2]; pancreas, c(RGDyK) blocking (200 μg coinjected), read-out: ID/g, pancreas): 0.66 ± 0.19 %ID/g
- tissue uptake at 1.5 h ([2]; pancreas, double blocking (NDP + c(RGDyK)), read-out: ID/g, pancreas): 0.32 ± 0.04 %ID/g
- tissue uptake at 1.5 h ([2]; pancreas, without blocking, read-out: ID/g, pancreas): 0.25 ± 0.08 %ID/g
- tissue uptake ([2]; small intestine, NDP blocking (20 μg coinjected), read-out: ID/g, small intestine): 1.6 ± 0.26 %ID/g
- tissue uptake ([2]; small intestine, c(RGDyK) blocking (200 μg coinjected), read-out: ID/g, small intestine): 1.46 ± 0.53 %ID/g
- tissue uptake ([2]; small intestine, double blocking (NDP + c(RGDyK)), read-out: ID/g, small intestine): 0.54 ± 0.08 %ID/g
- tissue uptake ([2]; small intestine, without blocking, read-out: ID/g, small intestine): 0.07 ± 0.02 %ID/g
- tissue uptake ([2]; spleen, NDP blocking (20 μg coinjected), read-out: ID/g, spleen): 1.51 ± 0.15 %ID/g
- tissue uptake ([2]; spleen, c(RGDyK) blocking (200 μg coinjected), read-out: ID/g, spleen): 1.71 ± 0.62 %ID/g
- tissue uptake ([2]; spleen, double blocking (NDP + c(RGDyK)), read-out: ID/g, spleen): 0.69 ± 0.1 %ID/g
- tissue uptake ([2]; spleen, without blocking, read-out: ID/g, spleen): 1.79 ± 0.31 %ID/g
- tissue uptake ([2]; stomach, NDP blocking (20 μg coinjected), read-out: ID/g, stomach): 1.03 ± 0.11 %ID/g
- tissue uptake ([2]; stomach, c(RGDyK) blocking (200 μg coinjected), read-out: ID/g, stomach): 0.99 ± 0.16 %ID/g
- tissue uptake ([2]; stomach, double blocking (NDP + c(RGDyK)), read-out: ID/g, stomach): 0.42 ± 0.03 %ID/g
- tissue uptake ([2]; stomach, without blocking, read-out: ID/g, stomach): 0.38 ± 0.13 %ID/g
- tissue uptake at 1.5 h ([2]; tail, NDP blocking (20 μg coinjected), read-out: ID/g, tail): 52.8 ± 5.59 %ID/g
- tissue uptake at 1.5 h ([2]; tail, c(RGDyK) blocking (200 μg coinjected), read-out: ID/g, tail): 44.3 ± 12.1 %ID/g
- tissue uptake ([2]; tail, double blocking (NDP + c(RGDyK)), read-out: ID/g, tail): 55.6 ± 7.12 %ID/g
- tissue uptake at 1.5 h ([2]; tail, without blocking, read-out: ID/g, tail): 25.3 ± 8.43 %ID/g
- visualization of B16F10 and U87MG tumors by PET/CT (B16F10 and U87MG tumors; PET/CT scans, MIPs 50–90 min post-injection): clearly visualize
- time at which uptakes in kidneys and liver reached their maximum (TACs) (B16F10 and U87MG tumors; dynamic PET over 90 min, i.v.): 5 to 10 min
- time at which the curves of both tumors approached a plateau (TACs) (B16F10 and U87MG tumors; dynamic PET over 90 min, i.v., B16F10 and U87MG tumors): about 70 min
